The results in this text go back to ChEMBL document CHEMBL1201862, “PubChem BioAssay data set” (2004).

Assay [1] has as its target NACHT, LRR and PYD domains-containing protein 1 (Homo sapiens, UniProt Q9C000). Put plainly: NALP1 inhibitors in yeast, dose response, luminescent (AID 488860). Type of assay: functional.
The next assay has as its target Troponin, cardiac muscle (Homo sapiens, UniProt P19429+P45379+P63316). The assay is described as follows: Fluorescence-based biochemical high throughput dose response assay for activators of the calcium sensitivity of cardiac Regulated Thin Filaments (RTF). [Related pubchem assays (depositor defined):AID493008, AID493018, AID504382, AID504383]. It is filed as protein-complex assay.

In assay [2] the target is T1, Replicative DNA helicase DnaB (Mycobacterium tuberculosis, UniProt P9WMR3).
T1 sequence (P9WMR3 whole entry): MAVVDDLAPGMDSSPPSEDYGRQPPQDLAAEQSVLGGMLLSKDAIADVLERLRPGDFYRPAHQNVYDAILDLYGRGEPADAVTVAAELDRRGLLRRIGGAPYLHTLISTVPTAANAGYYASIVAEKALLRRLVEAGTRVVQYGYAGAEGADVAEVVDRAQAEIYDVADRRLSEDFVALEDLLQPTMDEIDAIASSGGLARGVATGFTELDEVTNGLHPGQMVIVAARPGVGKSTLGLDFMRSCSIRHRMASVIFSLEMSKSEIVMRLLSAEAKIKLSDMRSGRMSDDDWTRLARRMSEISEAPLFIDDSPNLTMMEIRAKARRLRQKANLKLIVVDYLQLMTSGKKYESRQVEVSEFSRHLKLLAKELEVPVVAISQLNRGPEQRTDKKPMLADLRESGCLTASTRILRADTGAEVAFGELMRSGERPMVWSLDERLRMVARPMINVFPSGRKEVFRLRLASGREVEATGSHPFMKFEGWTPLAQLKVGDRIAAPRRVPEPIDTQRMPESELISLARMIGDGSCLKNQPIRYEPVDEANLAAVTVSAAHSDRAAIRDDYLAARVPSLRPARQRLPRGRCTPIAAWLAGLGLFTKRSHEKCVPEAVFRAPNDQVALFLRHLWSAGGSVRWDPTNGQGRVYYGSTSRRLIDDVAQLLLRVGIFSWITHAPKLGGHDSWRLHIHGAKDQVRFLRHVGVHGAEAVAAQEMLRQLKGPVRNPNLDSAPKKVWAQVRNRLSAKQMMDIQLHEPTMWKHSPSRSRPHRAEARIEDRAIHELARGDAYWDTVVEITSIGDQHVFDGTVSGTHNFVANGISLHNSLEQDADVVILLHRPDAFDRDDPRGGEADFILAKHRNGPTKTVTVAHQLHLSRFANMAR
The assay is described as follows: DnaB intein splicing inhibitors, dose response, biochemical, cell-free fluorescence (AID 449749). It is filed as functional.

Assay [3] deals with Mitochondrial peptide methionine sulfoxide reductase (Bos taurus, UniProt P54149). Put plainly: Absorbance-based biochemical high throughput dose response assay for activators of Methionine sulfoxide reductase A (MsrA). It is filed as functional.
The target of assay [4] is T2, Sentrin-specific protease 8 (Homo sapiens, UniProt Q96LD8).
T2 sequence (Q96LD8 whole entry): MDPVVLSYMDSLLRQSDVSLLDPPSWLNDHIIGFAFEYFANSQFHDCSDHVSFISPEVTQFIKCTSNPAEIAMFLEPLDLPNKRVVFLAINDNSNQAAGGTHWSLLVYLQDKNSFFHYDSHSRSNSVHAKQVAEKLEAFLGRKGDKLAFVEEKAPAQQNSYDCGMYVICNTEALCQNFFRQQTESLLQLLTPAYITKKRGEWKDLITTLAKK
It is filed as functional.

The target of assay [5] is T2, Sentrin-specific protease 8. Type of assay: functional. The source holds these as a separate data set.
The target of another assay is T3, Caspase-6 (Homo sapiens, UniProt P55212).
T3 sequence (P55212 whole entry): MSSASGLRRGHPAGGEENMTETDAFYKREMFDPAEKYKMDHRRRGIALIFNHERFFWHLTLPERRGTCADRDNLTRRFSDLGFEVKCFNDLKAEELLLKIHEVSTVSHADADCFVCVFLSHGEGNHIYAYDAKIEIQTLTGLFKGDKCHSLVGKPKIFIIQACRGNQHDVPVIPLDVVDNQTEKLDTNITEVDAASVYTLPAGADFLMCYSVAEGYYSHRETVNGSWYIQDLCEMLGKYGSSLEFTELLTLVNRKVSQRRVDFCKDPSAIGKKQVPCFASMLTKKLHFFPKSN
Put plainly: human caspase-6 inhibitors, dose response, biochemical, VEID-R110 fluorescence, cherry-pick (AID 720632).

The target in another assay is Large T antigen (Simian virus 40, UniProt P03070). Type of assay: functional, Betapolyomavirus macacae.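 Further: Confirmatory-stage PubChem screen for compounds that inhibit SV40 T antigen.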
In assay [6] the target is Tyrosine-protein kinase HCK (Homo sapiens, UniProt P08631). The assay is described as follows: Navigating the Kinome. Panel member name: HCK. Type of assay: functional.
Assay [7] deals with Mast/stem cell growth factor receptor Kit (Homo sapiens, UniProt P10721). Type of assay: functional.
Assay [8] addresses Proto-oncogene tyrosine-protein kinase ROS (Homo sapiens, UniProt P08922). It is filed as functional.
Assay [9] has as its target Calcium/calmodulin-dependent protein kinase kinase 2 (Homo sapiens, UniProt Q96RR4). The assay is described as follows: Navigating the Kinome. Panel member name: CAMKK2. Type of assay: functional.
Assay [10] has as its target MAP/microtubule affinity-regulating kinase 3 (Homo sapiens, UniProt P27448). It is filed as functional.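 Further: MARK3 affinity measured as one member of a kinome panel.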
The target of a further assay is Focal adhesion kinase 1 (Homo sapiens, UniProt Q05397). It is filed as functional.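 Further: measured as one member of a kinome panel.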
For assay [11], the target named is Mitogen-activated protein kinase 10 (Homo sapiens, UniProt P53779). Put plainly: Navigating the Kinome. Panel member name: MAPK10. Type of assay: functional.
For assay [12], the target named is Serine/threonine-protein kinase 17A (Homo sapiens, UniProt Q9UEE5). It is filed as functional.
The target in assay [13] is Cyclin-dependent kinase 2 (Homo sapiens, UniProt P24941). Type of assay: functional.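 Further: CDK2 measured as one member of a broad kinome profiling panel.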
Assay [14] addresses Cell division cycle 7-related protein kinase (Homo sapiens, UniProt O00311). It is filed as functional.
The target in assay [15] is Calcium/calmodulin-dependent protein kinase type II subunit delta (Homo sapiens, UniProt Q13557). Type of assay: functional.
Assay [16] concerns the target Serine/threonine-protein kinase N2 (Homo sapiens, UniProt Q16513). It is filed as functional.
Assay [17] deals with Mitogen-activated protein kinase kinase kinase kinase 5 (Homo sapiens, UniProt Q9Y4K4). It is filed as functional.

Broadly, the IC50 is the midpoint of a concentration-inhibition curve. For orientation: EC50 means the concentration giving half of the maximal effect. Broadly, the AC50 is the concentration giving half of the maximal activity seen. In general, Ki refers to a measure of affinity in units of concentration, obtained from inhibition or displacement.

Each structure is given as a SMILES string. Calls of active or inactive are those of the source.

In the case of `c1ccc2nc3cc4[nH]cnc4cc3nc2c1`, the IC50 in assay [1] was > 100 µM (inactive); in assay [4] it was 12.5 µM (active); in assay [5], 10.8 µM (active). Further, the EC50 at Troponin, cardiac muscle was 5.37 µM (active); in assay [3] it was 53 µM (inactive). Further, the half-maximal activity concentration (AC50) in assay [2] was 19.5 µM (active); on Caspase-6, 33 µM (active).

As for `Oc1ccc(-c2nc(-c3ccncc3)c(-c3ccc(F)cc3)[nH]2)cc1` [SB-202190], the IC50 at Large T antigen is 4.87 µM (active). Also, the Ki in [6] is > 3.16 µM (inactive); in assay [7], > 6.31 µM (inactive); in [8] it was 2.51 µM (active); in [9], > 2.51 µM (inactive); in assay [10], > 5.01 µM (inactive); on Focal adhesion kinase 1, > 3.98 µM (inactive). Further, the inhibitory constant (Ki) in [11] was 0.0631 µM (active).

`CCCCC(=O)Nc1cc(-c2c[nH]c3ncccc23)cc(Cl)n1`: the Ki in [12] is > 3.16 µM (inactive); in assay [13] it was > 3.16 µM (inactive); in [14], 0.000501 µM (active); in [15], > 3.16 µM (inactive); in assay [16], > 5.01 µM (inactive); in [17], > 3.98 µM (inactive).
